The test system of data set [1] is multidrug resistant strain of Plasmodium yoelii Nigeriensis. Put plainly: Antimalarial activity against multidrug resistant P. yoelii in Swiss mice (4-day treatment, observed till day 28). The conditions noted are these: Swiss mice; for inhibition in vivo at 96 mg/kg/day / responders at 96 mg/kg/day / inhibition in vivo at 24 mg/kg/day / inhibition in vivo at 48 mg/kg/day / responders at 24 mg/kg/day / responders at 48 mg/kg/day: Plasmodium yoelii; for inhibition in vivo at 96 mg/kg/day / inhibition in vivo at 24 mg/kg/day / inhibition in vivo at 48 mg/kg/day: 96 h, read-out: % Suppression on Day 4; for inhibition in vivo at 96 mg/kg/day / inhibition in vivo at 24 mg/kg/day / inhibition in vivo at 48 mg/kg/day / % Suppression on Day 4: day 0-3, in groundnut oil; for responders at 96 mg/kg/day / responders at 24 mg/kg/day / responders at 48 mg/kg/day: 672 h, read-out: Mice alive on day-28 (converted); for responders at 96 mg/kg/day / responders at 24 mg/kg/day / responders at 48 mg/kg/day / Mice alive on day-28: day 0-3. Format: in vivo. Here is the method:
The antimalarial activity of the test compounds was evaluated in rodent using multidrug resistant strain of Plasmodium yoelii Nigeriensis in Swiss mice.
Random bred Swiss mice of either sex (20±2 gm) were inoculated intraperitoneally with 1×10^5 P. yoelii (MDR) parasites on day zero. Treatments with test compounds were administered to group of 5 mice each at different dose levels ranging between 12–96 mg/kg/day. Treatment was administered in groundnut oil intramuscularly and orally for 4 consecutive days (day 0–3). Blood smears from experimental mice were observed on day 4 and 7, day 10 and thereafter at regular intervals till day 28 or death of animal. Parasitaemia level on day 4 was compared with vehicle control group and percent suppression of parasitaemia in treated groups was calculated. […] The dose at which no parasitaemia develop during the observation period was reported as curative dose.

[2] abbreviates: 24 mg/kg/day, oral, 24 mg/kg/day.
Setting [3] is: 48 mg/kg/day, oral, 48 mg/kg/day.

Like-named read-outs stand apart in the source and are kept apart here.

Broadly, the melting point is the temperature of the solid-liquid transition. In turn, `C=C(c1ccccc1)C1COC2(CCC(Nc3ccc(F)cc3)CC2)OO1` (centres unmarked) showed a melting point of 130 to 132 °C.

Regarding `C=C(c1ccc(Cl)cc1)C1COC2(CCC(Nc3ccc4c(c3)-c3ccccc3C4)CC2)OO1` (centres unmarked), the melting point was in the range of 166 to 168 °C.

Compound `C=C(c1ccc(OC)cc1)C1COC2(CCC(Nc3ccc(OC)cc3)CC2)OO1` (centres unmarked) returned a melting point of 123 to 124 °C.

Take `C=C(c1ccc(Cl)cc1)C1COC2(CCC(Nc3cccc(C(F)(F)F)c3)CC2)OO1` (centres unmarked) [Compound 4co, {3-[1-(4-Chloro-phenyl)-vinyl]-1,2,5-trioxa-spiro[5.5]undec-9-yl}-(3-trifluoromethyl-phenyl)-amine]: in data set [1] (im, im), the inhibition in vivo at 96 mg/kg/day was determined as 73% and the responders at 96 mg/kg/day was 0%. Moreover, in data set [1] (po, 24 mg/kg/day, oral), the inhibition in vivo at 24 mg/kg/day was 100% and the responders at 24 mg/kg/day is 60%. In addition, in data set [1] (po, 48 mg/kg/day, oral), the inhibition in vivo at 48 mg/kg/day came out at 100% and the responders at 48 mg/kg/day was 100%. Moreover, in data set [1] (po, oral), the inhibition in vivo at 96 mg/kg/day was determined as 100% and the responders at 96 mg/kg/day was 100%.

With `C=C(c1ccc(OC)cc1)C1COC2(CCC(Nc3ccccc3)CC2)OO1` (centres unmarked) [Compound 4da, {3-[1-(4-Methoxy-Phenyl)-Vinyl]-1,2,5-Trioxa-Spiro[5.5]undec-9-yl}-Phenyl-Amine], in data set [1] (im, im), the inhibition in vivo at 96 mg/kg/day was 81% and the responders at 96 mg/kg/day was 0%. Besides, in data set [1] (po, oral), the inhibition in vivo at 96 mg/kg/day stood at 100% and the responders at 96 mg/kg/day is 0%.

As to `C=C(c1ccc(OC)cc1)C1COC2(CCC(Nc3ccc(Cl)cc3)CC2)OO1` (centres unmarked) [Compound 4dc, (4-Chloro-Phenyl)-{3-[1-(4-Methoxy-Phenyl)-Vinyl]-1,2,5-Trioxa-Spiro[5.5]undec-9-yl}-Amine], in data set [1] (im, im), the inhibition in vivo at 96 mg/kg/day worked out at 100% and the responders at 96 mg/kg/day was 80%. In data set [1] (po, 24 mg/kg/day, oral), the inhibition in vivo at 24 mg/kg/day came out at 100% and the responders at 24 mg/kg/day is 80%. Besides, in data set [1] (po, 48 mg/kg/day, oral), the inhibition in vivo at 48 mg/kg/day is 100% and the responders at 48 mg/kg/day is 100%. Also, in data set [1] (po, oral), the inhibition in vivo at 96 mg/kg/day stood at 100% and the responders at 96 mg/kg/day is 100%.

Take `C=C(c1ccc(OC)cc1)C1COC2(CCC(Nc3cc(Cl)cc(Cl)c3)CC2)OO1` (centres unmarked) [Compound 4dd, (3,5-Dichloro-Phenyl)-{3-[1-(4-Methoxy-Phenyl)-Vinyl]-1,2,5-Trioxa-Spiro[5.5]undec-9-yl}-Amine]: in data set [1] (po, oral), the inhibition in vivo at 96 mg/kg/day was determined as 100% and the responders at 96 mg/kg/day was 80%.

Consider `C=C(c1ccc(OC)cc1)C1COC2(CCC(Nc3cccc4ccccc34)CC2)OO1` (centres unmarked) [Compound 4df, {3-[1-(4-Methoxy-phenyl)-vinyl]-1,2,5-trioxa-spiro[5.5]undec-9-yl}-naphthalen-1-yl-amine], for which, in data set [1] (po, 48 mg/kg/day, oral), the inhibition in vivo at 48 mg/kg/day was determined as 100% and the responders at 48 mg/kg/day was 40%. In data set [1] (po, oral), the inhibition in vivo at 96 mg/kg/day was 100% and the responders at 96 mg/kg/day was 100%.

In the case of `C=C(c1ccc(OC)cc1)C1COC2(CCC(Nc3ccccc3-c3ccccc3)CC2)OO1` (centres unmarked) [Compound 4dg, Biphenyl-2-yl-{3-[1-(4-methoxy-phenyl)-vinyl]-1,2,5-trioxa-spiro[5.5]undec-9-yl}-amine], the inhibition in vivo at 24 mg/kg/day in data set [1] (po, 24 mg/kg/day, oral) worked out at 91%. Besides, in data set [1] (po, 48 mg/kg/day, oral), the inhibition in vivo at 48 mg/kg/day worked out at 100%. The “Mice alive on day-28” value in data set [1] (setting [2]) was 1/5; in data set [1] (setting [3]), 3/5.

`C=C(c1ccc(OC)cc1)C1COC2(CCC(Nc3ccccc3-c3ccccc3)CC2)OO1` (centres unmarked) [Compound 4dh, Biphenyl-2-yl-{3-[1-(4-methoxy-phenyl)-vinyl]-1,2,5-trioxa-spiro[5.5]undec-9-yl}-amine]: the “% Suppression on Day 4” value in data set [1] (setting [2]) is 100%; in data set [1] (48 mg/kg/day, oral), 100%. The “Mice alive on day-28” value in data set [1] (setting [2]) and in data set [1] (setting [3]) was 5/5 throughout.

For the compound `C=C(c1ccc(OC)cc1)C1COC2(CCC(Nc3cccc(C(F)(F)F)c3)CC2)OO1` (centres unmarked) [Compound 4dm, {3-[1-(4-Methoxy-Phenyl)-Vinyl]-1,2,5-Trioxa-Spiro[5.5]undec-9-yl}-(3-Trifluoromethyl-Phenyl)-Amine], in data set [1] (im, im), the inhibition in vivo at 96 mg/kg/day stood at 100% and the responders at 96 mg/kg/day is 0%. In data set [1] (po, 24 mg/kg/day, oral), the inhibition in vivo at 24 mg/kg/day was found to be 100% and the responders at 24 mg/kg/day was 100%. In data set [1] (po, 48 mg/kg/day, oral), the inhibition in vivo at 48 mg/kg/day stood at 100% and the responders at 48 mg/kg/day was 100%. Further, in data set [1] (po, oral), the inhibition in vivo at 96 mg/kg/day amounted to 100% and the responders at 96 mg/kg/day was 100%.

For the compound `C=C(c1ccc(C)cc1)C1COC2(CCC(Nc3ccccc3)CC2)OO1` (centres unmarked) [Compound 4ea, Phenyl-[3-(1-p-Tolyl-Vinyl)-1,2,5-Trioxa-Spiro[5.5]undec-9-yl]-Amine], in data set [1] (im, im), the inhibition in vivo at 96 mg/kg/day was 96% and the responders at 96 mg/kg/day is 0%. In addition, in data set [1] (po, oral), the inhibition in vivo at 96 mg/kg/day came out at 100% and the responders at 96 mg/kg/day is 100%.

For `C=C(c1ccc(C)cc1)C1COC2(CCC(Nc3ccc(OC)cc3)CC2)OO1` (centres unmarked) [Compound 4eb, (4-Methoxy-Phenyl)-[3-(1-p-Tolyl-Vinyl)-1,2,5-Trioxa-Spiro[5.5]undec-9-yl]-Amine], in data set [1] (im, im), the inhibition in vivo at 96 mg/kg/day was determined as 93% and the responders at 96 mg/kg/day was 0%. Besides, in data set [1] (po, oral), the inhibition in vivo at 96 mg/kg/day is 100% and the responders at 96 mg/kg/day was 100%.

Turning to `C=C(c1ccc(C)cc1)C1COC2(CCC(Nc3ccc(Cl)cc3)CC2)OO1` (centres unmarked) [Compound 4ec, (4-Chloro-Phenyl)-[3-(1-p-Tolyl-Vinyl)-1,2,5-Trioxa-Spiro[5.5]undec-9-yl]-Amine], in data set [1] (po, oral), the inhibition in vivo at 96 mg/kg/day is 100% and the responders at 96 mg/kg/day was 100%.

Regarding `C=C(c1ccc(C)cc1)C1COC2(CCC(Nc3cc(Cl)cc(Cl)c3)CC2)OO1` (centres unmarked) [Compound 4ed, (3,5-Dichloro-Phenyl)-[3-(1-Tolyl-Vinyl)-1,2,5-Trioxa-Spiro[5.5]undec-9-yl]-Amine], the “Mice alive on day-28” value is given as 0/5 in data set [1] (24 mg/kg/day, oral) and 4/5 in data set [1] (setting [3]). Further, the “% Suppression on Day 4” value in data set [1] (setting [2]) worked out at 95%; in data set [1] (48 mg/kg/day, oral), 100%.

As to `C=C(c1ccc(C)cc1)C1COC2(CCC(Nc3cc(Cl)cc(Cl)c3)CC2)OO1` (centres unmarked) [Compound 4ee, (3,5-Dichloro-Phenyl)-[3-(1-Tolyl-Vinyl)-1,2,5-Trioxa-Spiro[5.5]undec-9-yl]-Amine], the “Mice alive on day-28” value is recorded as 0/5 in data set [1] (24 mg/kg/day, oral) and 2/5 in data set [1] (setting [3]). Further, the “% Suppression on Day 4” value in data set [1] (setting [2]) came to 81%; in data set [1] (48 mg/kg/day, oral) it was 100%.

Consider `C=C(c1ccc(C)cc1)C1COC2(CCC(Nc3cccc4ccccc34)CC2)OO1` (centres unmarked) [Compound 4eg, Naphthalen-1-yl-[3-(1-p-Tolyl-Vinyl)-1,2,5-Trioxa-Spiro[5.5]undec-9-yl]-Amine], for which, in data set [1] (po, oral), the inhibition in vivo at 96 mg/kg/day was found to be 100% and the responders at 96 mg/kg/day was 100%.

Consider `C=C(c1ccc(C)cc1)C1COC2(CCC(Nc3ccc(-c4ccccc4)cc3)CC2)OO1` (centres unmarked) [Compound 4ej, Biphenyl-4-yl-[3-(1-p-tolyl-vinyl)-1,2,5-trioxa-spiro[5.5]undec-9-yl]-amine], for which, in data set [1] (im, im), the inhibition in vivo at 96 mg/kg/day is 69% and the responders at 96 mg/kg/day was 0%. Moreover, in data set [1] (po, 48 mg/kg/day, oral), the inhibition in vivo at 48 mg/kg/day turned out to be 100% and the responders at 48 mg/kg/day was 40%. Further, in data set [1] (po, oral), the inhibition in vivo at 96 mg/kg/day is 100% and the responders at 96 mg/kg/day is 100%.

Turning to `C=C(c1ccc(C)cc1)C1COC2(CCC(Nc3cccc(C(F)(F)F)c3)CC2)OO1` (centres unmarked) [Compound 4en, [3-(1-p-Tolyl-vinyl)-1,2,5-trioxa-spiro[5.5]undec-9-yl]-(3-trifluoromethyl-phenyl)-amine], in data set [1] (po, oral), the inhibition in vivo at 96 mg/kg/day came out at 100% and the responders at 96 mg/kg/day is 60%.

Turning to `CCO[C@H]1O[C@@H]2O[C@@]3(C)CC[C@H]4[C@H](C)CC[C@@H]([C@H]1C)[C@@]24OO3` [β-Arteether, reference compound], the “Mice alive on day-28” value in data set [1] (24 mg/kg/day, oral) was 1/5; in data set [1] (48 mg/kg/day, oral), 5/5. Besides, the “% Suppression on Day 4” value in data set [1] (24 mg/kg/day, oral) is listed as 100%; in data set [1] (48 mg/kg/day, oral) it was 100%.

The record behind these values is patent US7071226B1, “Amino-functionalized 1,2,4-trioxanes useful as antimalarial agents and process for preparation thereof” (Council of Scientific and Industrial Research, priority 2004, dated 2006).
